Targets include MAK (Homo sapiens, UniProt P20794); TNNI3K (Homo sapiens, UniProt Q59H18); LCK (Homo sapiens, UniProt P06239); ERBB4 (Homo sapiens, UniProt Q15303); IRAK4 (Homo sapiens, UniProt Q9NWZ3); KIT(A829P) (Homo sapiens, UniProt P10721, A829P); PIK3CA (Homo sapiens, UniProt P42336); CSNK1G1 (Homo sapiens, UniProt Q9HCP0); DAPK1 (Homo sapiens, UniProt P53355); PRKD2 (Homo sapiens, UniProt Q9BZL6); ULK3 (Homo sapiens, UniProt Q6PHR2); GSK3B (Homo sapiens, UniProt P49841); LIMK2 (Homo sapiens, UniProt P53671); NEK1 (Homo sapiens, UniProt Q96PY6).

Holding throughout (assay): biochemical
Holding throughout (design): KINOMEscan scanMAX competition binding, DNA-tagged kinases, qPCR read-out, percent control at 300 nM

The target of assay [1] is T1, ABL1(T315I)-phosphorylated (Homo sapiens, UniProt P00519, T315I).
T1 construct: phosphorylated

A further assay concerns the target T2, MLK1 (Homo sapiens, UniProt P80192).
T2 construct: gene MAP3K9

In another assay the target is T3, HPK1 (Homo sapiens, UniProt Q92918).
T3 construct: gene MAP4K1
T3 sequence (Q92918 whole entry): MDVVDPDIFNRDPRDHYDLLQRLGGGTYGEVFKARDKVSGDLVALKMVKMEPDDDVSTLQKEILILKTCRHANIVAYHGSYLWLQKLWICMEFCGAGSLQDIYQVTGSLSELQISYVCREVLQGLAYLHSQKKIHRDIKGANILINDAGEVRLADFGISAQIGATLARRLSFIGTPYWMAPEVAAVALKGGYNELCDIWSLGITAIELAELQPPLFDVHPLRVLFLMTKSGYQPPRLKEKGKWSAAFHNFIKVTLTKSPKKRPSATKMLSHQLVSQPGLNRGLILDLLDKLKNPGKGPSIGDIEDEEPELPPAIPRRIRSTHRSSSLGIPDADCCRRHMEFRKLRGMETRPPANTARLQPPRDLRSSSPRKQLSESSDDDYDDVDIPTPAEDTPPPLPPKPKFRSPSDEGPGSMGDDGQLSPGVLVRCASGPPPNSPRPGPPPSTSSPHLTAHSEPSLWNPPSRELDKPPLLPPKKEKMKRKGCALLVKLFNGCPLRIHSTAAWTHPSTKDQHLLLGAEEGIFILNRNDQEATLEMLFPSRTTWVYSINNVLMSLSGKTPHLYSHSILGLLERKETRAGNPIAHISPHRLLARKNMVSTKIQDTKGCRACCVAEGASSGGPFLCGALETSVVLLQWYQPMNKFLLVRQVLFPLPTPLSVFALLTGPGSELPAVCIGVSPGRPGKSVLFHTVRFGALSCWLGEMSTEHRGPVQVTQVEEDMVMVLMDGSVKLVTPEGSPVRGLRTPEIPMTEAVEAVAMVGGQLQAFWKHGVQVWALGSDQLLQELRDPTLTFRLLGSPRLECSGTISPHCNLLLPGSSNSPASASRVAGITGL

In a further assay the target is T4, YANK1 (Homo sapiens, UniProt Q8WU08).
T4 construct: gene STK32A

A further assay addresses T5, ERK8 (Homo sapiens, UniProt Q8TD08).
T5 construct: gene MAPK15

The next assay deals with T6, LOK (Homo sapiens, UniProt O94804).
T6 construct: gene STK10

In a further assay the target is T7, PCTK3 (Homo sapiens, UniProt Q07002).
T7 construct: gene CDK18
T7 sequence (Q07002 whole entry): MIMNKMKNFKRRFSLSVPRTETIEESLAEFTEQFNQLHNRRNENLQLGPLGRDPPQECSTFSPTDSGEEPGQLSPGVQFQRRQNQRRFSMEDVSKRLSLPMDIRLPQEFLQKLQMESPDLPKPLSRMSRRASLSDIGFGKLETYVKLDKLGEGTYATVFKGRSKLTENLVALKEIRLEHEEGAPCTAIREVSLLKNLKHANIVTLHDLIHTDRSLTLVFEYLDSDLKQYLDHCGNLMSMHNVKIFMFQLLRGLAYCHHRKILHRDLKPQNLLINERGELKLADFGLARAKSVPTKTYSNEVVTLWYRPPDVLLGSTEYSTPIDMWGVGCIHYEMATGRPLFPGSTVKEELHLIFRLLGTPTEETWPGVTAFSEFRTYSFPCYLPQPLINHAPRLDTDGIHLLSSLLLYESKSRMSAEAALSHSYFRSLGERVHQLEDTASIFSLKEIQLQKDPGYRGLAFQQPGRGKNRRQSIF

A further assay has as its target T8, MLK3 (Homo sapiens, UniProt Q16584).
T8 construct: gene MAP3K11

A further assay addresses T9, DCAMKL2 (Homo sapiens, UniProt Q8N568).
T9 construct: gene DCLK2

Setting [2] is: read-out: Percent control / Tirabrutinib.
Setting [3] is: read-out: Percent control / Acalabrutinib.
The mark [4] stands for this setting: read-out: Percent control / Ibrutinib.
The mark [5] stands for this setting: read-out: Percent control / Zanubrutinib.

Where two headings read alike, the source gives them in different places.

CSNK1G1, sequence (Q9HCP0 whole entry): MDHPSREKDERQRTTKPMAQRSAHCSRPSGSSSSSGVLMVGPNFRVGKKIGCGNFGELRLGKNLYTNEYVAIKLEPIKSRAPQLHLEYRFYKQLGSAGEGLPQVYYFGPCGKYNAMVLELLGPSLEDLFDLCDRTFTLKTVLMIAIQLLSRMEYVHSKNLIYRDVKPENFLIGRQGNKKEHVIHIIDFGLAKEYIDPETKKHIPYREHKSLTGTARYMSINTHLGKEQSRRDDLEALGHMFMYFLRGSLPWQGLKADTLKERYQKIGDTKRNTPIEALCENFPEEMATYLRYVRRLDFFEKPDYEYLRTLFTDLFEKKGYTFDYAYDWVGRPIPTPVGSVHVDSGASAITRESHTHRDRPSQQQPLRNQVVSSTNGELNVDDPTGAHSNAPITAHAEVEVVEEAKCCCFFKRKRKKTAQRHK
DAPK1, sequence (P53355 whole entry): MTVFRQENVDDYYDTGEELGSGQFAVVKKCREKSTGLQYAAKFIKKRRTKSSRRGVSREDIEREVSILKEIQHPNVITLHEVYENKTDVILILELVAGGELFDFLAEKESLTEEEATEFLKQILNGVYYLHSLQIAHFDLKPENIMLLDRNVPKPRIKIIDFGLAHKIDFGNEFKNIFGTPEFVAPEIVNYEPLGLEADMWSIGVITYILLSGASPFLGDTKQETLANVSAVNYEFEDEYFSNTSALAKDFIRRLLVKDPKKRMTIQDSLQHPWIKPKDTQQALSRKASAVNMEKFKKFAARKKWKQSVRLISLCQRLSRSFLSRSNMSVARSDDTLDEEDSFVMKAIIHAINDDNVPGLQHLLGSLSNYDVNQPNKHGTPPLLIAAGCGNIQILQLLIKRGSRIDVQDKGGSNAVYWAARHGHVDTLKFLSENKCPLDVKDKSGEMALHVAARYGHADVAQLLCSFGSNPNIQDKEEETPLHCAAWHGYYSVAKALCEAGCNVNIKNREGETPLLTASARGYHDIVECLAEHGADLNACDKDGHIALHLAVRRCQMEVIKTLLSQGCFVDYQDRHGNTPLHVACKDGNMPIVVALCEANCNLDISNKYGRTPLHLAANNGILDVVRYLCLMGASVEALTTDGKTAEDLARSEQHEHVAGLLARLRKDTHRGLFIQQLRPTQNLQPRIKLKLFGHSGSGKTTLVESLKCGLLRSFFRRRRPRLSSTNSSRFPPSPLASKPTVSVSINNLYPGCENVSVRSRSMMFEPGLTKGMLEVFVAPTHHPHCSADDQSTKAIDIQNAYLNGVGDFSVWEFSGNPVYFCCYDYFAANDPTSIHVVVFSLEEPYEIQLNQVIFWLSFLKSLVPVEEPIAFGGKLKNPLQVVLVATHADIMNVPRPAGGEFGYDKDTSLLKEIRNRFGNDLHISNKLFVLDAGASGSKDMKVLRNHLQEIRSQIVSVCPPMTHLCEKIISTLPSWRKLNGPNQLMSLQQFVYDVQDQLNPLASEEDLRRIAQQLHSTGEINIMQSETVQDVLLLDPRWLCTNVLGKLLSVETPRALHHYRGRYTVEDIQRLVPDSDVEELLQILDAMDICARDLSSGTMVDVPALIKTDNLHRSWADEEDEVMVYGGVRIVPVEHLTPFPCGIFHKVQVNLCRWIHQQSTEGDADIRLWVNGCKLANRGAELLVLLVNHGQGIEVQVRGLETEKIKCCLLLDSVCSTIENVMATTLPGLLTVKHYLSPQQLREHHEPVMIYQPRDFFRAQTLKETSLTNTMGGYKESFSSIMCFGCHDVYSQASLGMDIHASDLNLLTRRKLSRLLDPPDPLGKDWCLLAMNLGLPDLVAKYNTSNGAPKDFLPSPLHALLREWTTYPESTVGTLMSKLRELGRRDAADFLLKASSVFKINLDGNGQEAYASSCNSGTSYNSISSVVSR
PRKD2, sequence (Q9BZL6 whole entry): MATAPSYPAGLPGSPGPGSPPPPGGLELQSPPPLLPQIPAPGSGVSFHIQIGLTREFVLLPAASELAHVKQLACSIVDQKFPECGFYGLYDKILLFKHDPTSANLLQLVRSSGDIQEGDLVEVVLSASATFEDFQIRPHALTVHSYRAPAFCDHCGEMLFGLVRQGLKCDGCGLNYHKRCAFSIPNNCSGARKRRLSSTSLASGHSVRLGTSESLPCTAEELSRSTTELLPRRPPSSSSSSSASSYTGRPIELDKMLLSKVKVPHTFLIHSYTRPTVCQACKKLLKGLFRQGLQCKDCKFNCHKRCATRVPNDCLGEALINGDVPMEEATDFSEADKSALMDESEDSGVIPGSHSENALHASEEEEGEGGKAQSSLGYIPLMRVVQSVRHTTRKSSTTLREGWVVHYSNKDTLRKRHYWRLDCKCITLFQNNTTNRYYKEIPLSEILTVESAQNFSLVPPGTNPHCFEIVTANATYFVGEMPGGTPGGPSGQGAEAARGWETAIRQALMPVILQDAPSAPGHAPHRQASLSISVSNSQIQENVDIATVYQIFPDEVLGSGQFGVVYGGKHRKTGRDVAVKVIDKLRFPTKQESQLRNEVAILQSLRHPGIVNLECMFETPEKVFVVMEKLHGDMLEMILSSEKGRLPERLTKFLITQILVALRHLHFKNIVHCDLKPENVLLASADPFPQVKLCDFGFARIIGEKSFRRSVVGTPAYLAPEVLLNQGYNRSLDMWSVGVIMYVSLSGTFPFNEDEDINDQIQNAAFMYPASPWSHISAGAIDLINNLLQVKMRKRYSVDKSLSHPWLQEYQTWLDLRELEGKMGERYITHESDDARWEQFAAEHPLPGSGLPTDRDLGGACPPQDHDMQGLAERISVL
KIT(A829P), sequence (P10721 whole entry A829P): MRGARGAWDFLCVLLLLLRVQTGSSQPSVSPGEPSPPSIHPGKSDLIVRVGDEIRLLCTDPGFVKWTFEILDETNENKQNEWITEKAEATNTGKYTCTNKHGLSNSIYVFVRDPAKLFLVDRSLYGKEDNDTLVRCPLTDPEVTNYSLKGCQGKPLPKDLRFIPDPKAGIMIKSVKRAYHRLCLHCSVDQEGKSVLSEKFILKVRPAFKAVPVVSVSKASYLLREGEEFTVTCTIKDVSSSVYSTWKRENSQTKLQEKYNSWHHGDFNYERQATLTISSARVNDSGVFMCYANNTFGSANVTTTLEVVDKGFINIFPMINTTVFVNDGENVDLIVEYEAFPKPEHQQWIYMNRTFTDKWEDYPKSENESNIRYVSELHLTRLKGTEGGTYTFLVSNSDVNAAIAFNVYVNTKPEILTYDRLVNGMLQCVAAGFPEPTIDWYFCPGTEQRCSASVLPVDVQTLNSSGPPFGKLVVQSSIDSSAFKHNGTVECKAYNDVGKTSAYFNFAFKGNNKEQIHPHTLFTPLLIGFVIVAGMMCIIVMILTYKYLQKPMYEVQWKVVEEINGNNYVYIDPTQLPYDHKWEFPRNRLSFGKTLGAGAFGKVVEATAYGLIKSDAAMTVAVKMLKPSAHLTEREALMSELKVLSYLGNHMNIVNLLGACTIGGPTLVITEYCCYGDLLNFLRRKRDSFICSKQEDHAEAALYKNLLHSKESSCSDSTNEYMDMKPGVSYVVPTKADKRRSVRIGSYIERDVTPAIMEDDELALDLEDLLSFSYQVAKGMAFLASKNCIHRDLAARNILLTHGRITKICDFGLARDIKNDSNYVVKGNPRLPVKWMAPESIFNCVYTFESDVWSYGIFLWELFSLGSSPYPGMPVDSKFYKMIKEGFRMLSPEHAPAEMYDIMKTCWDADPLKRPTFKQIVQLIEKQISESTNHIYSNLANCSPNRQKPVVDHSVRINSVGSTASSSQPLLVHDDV

Consider `CC#CC(=O)N1CC[C@@H](n2c(=O)n(-c3ccc(Oc4ccccc4)cc3)c3c(N)ncnc32)C1` [Tirabrutinib], for which the remaining binding at 0.3 µM on MAK (setting [2]) came out at 94%; at TNNI3K (setting [2]), 91%; in assay [1] (setting [2]) it was 73%; on LCK (setting [2]), 49%.

As for `CC#CC(=O)N1CCC[C@H]1c1nc(-c2ccc(C(=O)Nc3ccccn3)cc2)c2c(N)nccn12` [Acalabrutinib], the remaining binding at 0.3 µM on ERBB4 (setting [3]) amounted to 7.7%; at MLK1 (setting [3]), 92%; on IRAK4 (setting [3]), 97%; at TNNI3K (setting [3]) it was 66%; at HPK1 (setting [3]), 93%; on KIT(A829P) (setting [3]) it was 80%. Moreover, the remaining binding at 0.3 µM at YANK1 (setting [3]) came out at 97%; on ERK8 (setting [3]) it was 88%; on PIK3CA (setting [3]), 97%; on CSNK1G1 (setting [3]), 90%; at LOK (setting [3]) it was 99%; at PCTK3 (setting [3]) it was 90%. Further, the remaining binding at 0.3 µM at MLK3 (setting [3]) was determined as 87%; on DAPK1 (setting [3]), 94%; at PRKD2 (setting [3]) it was 70%; on DCAMKL2 (setting [3]), 90%; in assay [1] (setting [3]), 97%; on ULK3 (setting [3]) it was 91%. Besides, the figures for the remaining binding at 0.3 µM on GSK3B (setting [3]), on LCK (setting [3]) and at LIMK2 (setting [3]) were 97%, 83% and 96%, respectively.

Regarding `C=CC(=O)N1CCC[C@@H](n2nc(-c3ccc(Oc4ccccc4)cc3)c3c(N)ncnc32)C1` [Ibrutinib], the remaining binding at 0.3 µM at ERBB4 (setting [4]) came to 0.15%; on NEK1 (setting [4]) it was 96%.

Turning to `C=CC(=O)N1CCC([C@@H]2CCNc3c(C(N)=O)c(-c4ccc(Oc5ccccc5)cc4)nn32)CC1` [Zanubrutinib], the remaining binding at 0.3 µM on MLK1 (setting [5]) is 84%; on IRAK4 (setting [5]) it was 91%; on MAK (setting [5]), 100%; at HPK1 (setting [5]), 100%; at KIT(A829P) (setting [5]) it was 97%; at YANK1 (setting [5]), 75%. Also, the remaining binding at 0.3 µM is 87% at ERK8 (setting [5]); 57% on PIK3CA (setting [5]); 91% at CSNK1G1 (setting [5]); 93% at LOK (setting [5]); 54% on NEK1 (setting [5]); 92% on PCTK3 (setting [5]). Besides, the remaining binding at 0.3 µM amounted to 98% at MLK3 (setting [5]); 87% at DAPK1 (setting [5]); 100% on PRKD2 (setting [5]); 91% at DCAMKL2 (setting [5]); 82% on ULK3 (setting [5]); 74% at GSK3B (setting [5]). The remaining binding at 0.3 µM at LIMK2 (setting [5]) came to 92%.

The values above are taken from publication PMC10004634 (PLOS ONE, 2023).
